Earlier results on one compound are cited in patent publication US20080221127A1, “PPAR ACTIVE COMPOUNDS” (Plexxikon Inc, priority 2007, published 2008).

One series concerns the target T1, PPARδ (Homo sapiens, UniProt Q03181).
T1 sequence (Q03181 1-441): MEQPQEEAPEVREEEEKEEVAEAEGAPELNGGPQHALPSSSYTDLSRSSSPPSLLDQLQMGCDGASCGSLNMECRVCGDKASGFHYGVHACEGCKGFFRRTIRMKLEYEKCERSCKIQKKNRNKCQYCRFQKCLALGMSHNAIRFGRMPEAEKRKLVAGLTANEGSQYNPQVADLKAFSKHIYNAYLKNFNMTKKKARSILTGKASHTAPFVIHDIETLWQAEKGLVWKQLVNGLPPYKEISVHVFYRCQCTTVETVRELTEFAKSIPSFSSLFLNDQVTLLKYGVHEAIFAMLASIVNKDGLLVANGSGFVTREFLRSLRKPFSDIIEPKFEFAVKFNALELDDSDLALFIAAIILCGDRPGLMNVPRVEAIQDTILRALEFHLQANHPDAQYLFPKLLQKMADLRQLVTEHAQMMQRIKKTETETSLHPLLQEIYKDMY

The next series concerns the target T2, murine PPARα (Mus musculus, UniProt P23204).
T2 sequence (P23204 1-468): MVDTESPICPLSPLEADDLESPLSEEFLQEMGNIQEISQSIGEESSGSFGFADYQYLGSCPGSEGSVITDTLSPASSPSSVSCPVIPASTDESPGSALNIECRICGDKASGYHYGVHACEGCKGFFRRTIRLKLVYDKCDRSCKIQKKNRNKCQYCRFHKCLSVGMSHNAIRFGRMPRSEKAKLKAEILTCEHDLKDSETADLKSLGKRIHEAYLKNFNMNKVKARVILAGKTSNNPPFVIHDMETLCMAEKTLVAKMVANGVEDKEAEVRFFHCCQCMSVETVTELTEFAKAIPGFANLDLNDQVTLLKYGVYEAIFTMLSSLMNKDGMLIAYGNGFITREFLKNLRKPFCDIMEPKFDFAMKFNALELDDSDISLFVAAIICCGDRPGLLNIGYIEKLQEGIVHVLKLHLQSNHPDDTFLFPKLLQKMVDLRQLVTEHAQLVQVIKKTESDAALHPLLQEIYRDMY

As for `CCCc1c(OCCCOc2ccc(OCC(=O)O)cc2)ccc(C(C)=O)c1O` [L-165041], at PPARδ, the “agonist selectivity for PPARδ over PPARγ” value is “approximately 30 fold”. Also, the “activity on murine PPARα” value on murine PPARα is “inactive”.
